From US12286401B2, “Small molecules that sensitize HIV-1 infected cells to antibody dependent cellular cytotoxicity” (THE TRUSTEES OF THE UNIVERSITY OF PENNSYLVANIA, priority 2018, dated 2025) come the findings set out here.

Several values for one entry are separate records, joined by “and”; a condition that tells them apart may be missing. Equal values may be shown once. Entries after “also recorded” stand apart in the source; their conditions may differ.

The first assay relates to HIV-1JR-FL EnvΔCT expressed at the surface of HOS cells. As to the kind of experiment: Cell-based ELISA (CBE), 17b readout. The conditions noted are these: MCG analogs 50 μM; BNM-III-170 5 μM; 2G12 and DMSO normalized. On the procedure: Detection of trimeric HIV-1 Env at the surface of HOS cells was performed by cell-based ELISA, as described in Desormeaux, “The highly conserved layer-3 component of the HIV-1 gp120 inner domain is critical for CD4-required conformational transitions,” J. Virol. 87:2549-2562; Alsahafi, “Effects of the I559P gp41 change on the conformation and function of the human immunodeficiency virus (HIV-1) membrane envelope glycoprotein trimer,” 2015, PLoS One 10:e0122111; and Veillette, “Conformational evaluation of HIV-1 trimeric envelope glycoproteins using a cell-based ELISA assay,” 2014, J. Vis. Exp., 91:51995. To enhance cell-surface expression of HIV-1 EnvRF a stop codon was introduced to replace the codon for Gly 711, truncating the cytoplasmic tail (ACT). Briefly, HOS cells were seeded in T-75 flasks (3×10^6 cells per flask) and transfected the next day with 22.5 μg of Env-expressing plasmids (wild-type and mutants S375W, S375T, H66A, A582T/L587A, etc) using the standard polyethylenimine (PEI, Polyscience Inc, PA, USA) transfection method. Twenty-four hours after transfection, cells were plated in 384-wells plates (2×10^4 cells per well). One day later, cells were washed twice with blocking buffer (10 mg/mL non-fat dry milk, 1.8 mM CaCl2), 1 mM MgCl2, 25 mM Tris, pH 7.5 and 140 mM NaCl) and then incubated for 30 minutes at room temperature with different concentrations of MCG analogs or equivalent volume of vehicle (DMSO). Cells were then incubated for an additional 1 h at room temperature with anti-HIV-1 Env monoclonal antibodies recognizing CD4-induced gp120 epitopes (17b, A32), CD4-binding site gp120 epitopes (VRC03, VRC01, F105, and b12), gp120 V3 glycans (19b, PGT126, PGT122, and 10.1074), gp120 outer domain (2G12), and gp120-gp41 interface (PGT151 and VRC34) epitopes. All ligands were diluted in blocking buffer. A horseradish peroxidase-conjugated antibody specific for the Fc region of human or mouse IgG (Pierce) was then incubated with the samples for 45 minutes at room temperature. For all conditions, cells were washed 5 times with blocking buffer and 5 times with washing buffer (1.8 mM CaCl2), 1 mM MgCl2, 25 mM Tris, pH 7.5 and 140 mM NaCl). HRP enzyme activity was determined after the addition of 20 μl per well of a 1:1 mix of Western Lightning oxidizing and luminol reagents (Perkin Elmer Life Sciences). Light emission was measured with an LB 941 TriStar luminometer (Berthold Technologies) and analysis with Graph Pad software.
The data of Table 2 is given as the fold over BNM-III-170 (5 μM) of Cell-Based ELISA with MCG Analogs (50 μM)—17b readout, 2G12 and DMSO normalized.
To identify molecules able to expose vulnerable Env epitopes, a cell-based ELISA (CBE) assay was adapted, capable of measuring conformational changes of membrane-bound trimeric Env as described in Veillette, 2014, J. Vis. Exp. doi:10.3791/51995:51995; Haim, 2011, PLoS Pathog 7:e1002101, into a high-throughput screening (HTS) platform (FIG. 10A). Briefly, the cytoplasmic-tail deleted HIV-1JR-FL Tier-2/3 Env was expressed on the surface of HOS cells in a 384-well-plate format. The cytoplasmic tail of Env was deleted to enhance Env expression at the cell surface and therefore enhance the sensitivity of the CBE assay. See, Veilette and Haim, 2009, PLoS Pathog 5:e100036. Small molecules or, as a positive control, soluble (sCD4) were added to expose the HIV-1JR-FL EnvΔCT epitope that can be recognized by the CD4i antibody 17b. See, Wyatt, 1995, J. Virol. 69:5723-5733; Rizzuto, 1998, Science 280:1949-1953.
17b binding was detected by a horseradish peroxidase-conjugated (HRP) second antibody, and HRP enzyme activity was measured by Western Lightning oxidizing and luminal reagents. 17b binding in the presence of sCD4 was set as the control (FIG. 10B, blue dots), small molecules that enhanced 17b binding above 25% of the one induced by sCD4 were retested in quadruplicate and only one molecule (UM0059920) was deemed a true positive (FIG. 10B, red dots). […]
Consider `CCCNC(=O)N1C[C@H](N)C[C@H](C(=O)Nc2ccc(Cl)c(F)c2)C1` [(3R,5S)-MCG-IV-226], for which the “Fold over BNM-III-170 - 17b binding (±0.05)” value (“Fold” below) was 0.11 fold.

As to `NCCOC(=O)N1C[C@H](N)C[C@H](C(=O)Nc2ccc(Cl)c(F)c2)C1` [(3R,5S)-MCG-IV-272], the “Fold” value is 0.07 fold.

With `NCCNC(=O)N1C[C@H](N)C[C@H](C(=O)Nc2ccc(Cl)c(F)c2)C1` [(3R,5S)-MCG-IV-273], the “Fold” value came out at 0.06 fold.

Consider `NCCCNC(=O)N1C[C@H](N)C[C@H](C(=O)Nc2ccc(Cl)c(F)c2)C1` [(3R,5S)-MCG-IV-274], for which the “Fold” value was found to be 0.06 fold.

Turning to `CS(=O)(=O)N1CCC[C@@H](C(=O)Nc2ccc(Cl)cc2)C1` [(R)-MCG-II-156], the “Fold” value was determined as 0.08 fold.

For `CS(=O)(=O)N1CCC[C@H](C(=O)Nc2ccc(Cl)cc2)C1` [(S)-MCG-II-153], the “Fold” value is 0.20 fold and 0.31 fold.

Regarding `CS(=O)(=O)N1CCC[C@H](C(=O)Nc2ccc(C(F)(F)F)c(F)c2)C1` [(S)-MCG-IV-024-A02], the “Fold” value was 0.38 fold.

Turning to `CCS(=O)(=O)N1CCC[C@H](C(=O)Nc2ccc(C(F)(F)F)c(F)c2)C1` [(S)-MCG-IV-024-B02], the “Fold” value worked out at 0.36 fold.

With `CCNC(=O)N1CCC[C@H](C(=O)Nc2ccc(Cl)c(F)c2)C1` [(S)-MCG-IV-031-A02], the “Fold” value is 0.37 fold.

For the compound `CN(C)C(=O)N1CCC[C@H](C(=O)Nc2ccc(Cl)c(F)c2)C1` [(S)-MCG-IV-031-A03], the “Fold” value was found to be 0.71 fold.

With `CCN(C)C(=O)N1CCC[C@H](C(=O)Nc2ccc(Cl)c(F)c2)C1` [(S)-MCG-IV-031-A04], the “Fold” value is 0.54 fold.

On to `CC(C)CNC(=O)N1CCC[C@H](C(=O)Nc2ccc(Cl)c(F)c2)C1` [(S)-MCG-IV-031-A06], for which the “Fold” value stood at 0.42 fold.

In the case of `COC(=O)N1CCC[C@H](C(=O)Nc2ccc(C(F)(F)F)c(F)c2)C1` [(S)-MCG-IV-050-A01], the “Fold” value is given as 0.44 fold.

In the case of `CCOC(=O)N1CCC[C@H](C(=O)Nc2ccc(C(F)(F)F)c(F)c2)C1` [(S)-MCG-IV-050-A02], the “Fold” value came to 0.49 fold.

In the case of `CNC(=N)N1CCC[C@H](C(=O)Nc2ccc(Cl)c(F)c2)C1` [(S)-MCG-IV-053-A01], the “Fold” value was 0.42 fold.

Regarding `CCCNC(=N)N1CCC[C@H](C(=O)Nc2ccc(Cl)c(F)c2)C1` [(S)-MCG-IV-053-A05], the “Fold” value worked out at 0.85 fold.

As to `CC(C)CNC(=N)N1CCC[C@H](C(=O)Nc2ccc(Cl)c(F)c2)C1` [(S)-MCG-IV-053-A06], the “Fold” value is reported as 0.60 fold.

Consider `CCCOC(=O)N1CCC[C@H](C(=O)Nc2ccc(Cl)c(F)c2)C1` [(S)-MCG-IV-058], for which the “Fold” value was 0.51 fold.

Take `CC(C)COC(=O)N1CCC[C@H](C(=O)Nc2ccc(Cl)c(F)c2)C1` [(S)-MCG-IV-061]: the “Fold” value turned out to be 0.62 fold.

For `CNC(=O)N1CCC[C@H](C(=O)Nc2ccc(C(F)(F)F)c(F)c2)C1` [(S)-MCG-IV-063-A01], the “Fold” value came out at 0.33 fold.

Turning to `CCNC(=O)N1CCC[C@H](C(=O)Nc2ccc(C(F)(F)F)c(F)c2)C1` [(S)-MCG-IV-063-A02], the “Fold” value is 0.35 fold.

For the compound `CN(C)C(=O)N1CCC[C@H](C(=O)Nc2ccc(C(F)(F)F)c(F)c2)C1` [(S)-MCG-IV-063-A03], the “Fold” value turned out to be 0.48 fold.

Consider `CCCNC(=O)N1CCC[C@H](C(=O)Nc2ccc(C(F)(F)F)c(F)c2)C1` [(S)-MCG-IV-063-A05], for which the “Fold” value stood at 0.45 fold.

Still in this assay, the particulars now being: high-throughput screen follow-up; sCD4 as control; result in words.
As for `CS(=O)(=O)N1CCC[C@@H](C(=O)Nc2ccc(Cl)cc2)C1` [(R)-MCG-II-156], the “17b binding in the CBE assay (screening hit and enantiomers)” value was “not”.

For `CS(=O)(=O)N1CCC[C@H](C(=O)Nc2ccc(Cl)cc2)C1` [(S)-MCG-II-153], the “17b binding in the CBE assay (screening hit and enantiomers)” value is recorded as “enhanced 17b binding to similar levels as UM0059920; also recorded: active enantiomer”.
